For seven molecules, GI50 and TGI results are on record in PubChem BioAssay (NCI).

Among the test systems are MALME-3M melanoma; SF-268 CNS; SK-MEL-2 melanoma; HOP-62 NSCLC; NCI-H460 lung; OVCAR-4 ovarian; MDA-MB-231 breast; OVCAR-3 ovarian; PC-3 prostate; CCRF-CEM leukemia.
Experiment in all cases: growth of human tumour cells (NCI), 48 h

Each structure is given as a SMILES string.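 Compound exposure: 48 hours, 5 concentrations, 96-well plates. GI50: concentration for 50% inhibition of growth. TGI: total growth inhibition.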

As to `COc1cc2c3c(n(CCCNCCN)c(=O)c2cc1OC)-c1cc2c(cc1C3=O)OCO2`, the GI50 in the assay on MALME-3M melanoma is 0.654 µM; in the assay with SF-268 CNS, 0.776 µM; with SK-MEL-2 melanoma, 2.63 µM; with HOP-62 NSCLC, 0.189 µM; in the assay with NCI-H460 lung it was 1.24 µM; in the assay with OVCAR-4 ovarian, 0.475 µM. Further, the GI50 in the assay with MDA-MB-231 breast was 0.343 µM; in the assay with OVCAR-3 ovarian it was 0.363 µM; in the assay on PC-3 prostate it was 2.13 µM; with CCRF-CEM leukemia, below 0.0105 µM. Moreover, the TGI in the assay on MALME-3M melanoma is 7.74 µM; with SF-268 CNS, above 31.9 µM; in the assay with SK-MEL-2 melanoma it was 8.67 µM; with HOP-62 NSCLC it was 1.73 µM; with NCI-H460 lung, above 49.9 µM; in the assay on OVCAR-4 ovarian, 2.47 µM. In addition, the TGI in the assay with MDA-MB-231 breast worked out at 2.48 µM; in the assay with OVCAR-3 ovarian, 1.21 µM; with PC-3 prostate, 14.9 µM; in the assay on CCRF-CEM leukemia, 0.339 µM.
For the molecule `CC(=O)O[C@H]1CC[C@@]2(C)C(=CC[C@H]3[C@@H]4C/C(=C\c5cccc(OCCN6CCOCC6)c5)[C@H](OC(C)=O)[C@@]4(C)CC[C@@H]32)C1`, the GI50 in the assay on MALME-3M melanoma is 11.4 µM; in the assay on SF-268 CNS, 12.6 µM; with SK-MEL-2 melanoma, 12.2 µM; in the assay on HOP-62 NSCLC it was 6.29 µM; in the assay on NCI-H460 lung it was 6.39 µM; in the assay on OVCAR-4 ovarian, 8.16 µM. The GI50 was 3.12 µM in the assay on MDA-MB-231 breast, 44.7 µM in the assay with OVCAR-3 ovarian, 4.5 µM in the assay with PC-3 prostate and 3.87 µM in the assay with CCRF-CEM leukemia. Further, the TGI in the assay with MALME-3M melanoma is 23.5 µM; in the assay on SF-268 CNS, 58.8 µM; with SK-MEL-2 melanoma it was 24.5 µM; with HOP-62 NSCLC, 19.5 µM; in the assay with NCI-H460 lung, 20.7 µM; in the assay on OVCAR-4 ovarian it was above 100 µM. Besides, the TGI was 13.3 µM in the assay with MDA-MB-231 breast, above 100 µM in the assay with OVCAR-3 ovarian, 16.4 µM in the assay with PC-3 prostate and 16.7 µM with CCRF-CEM leukemia.
Take `OCCSCc1ccccc1`: the TGI in the assay with MALME-3M melanoma, with SF-268 CNS, in the assay with SK-MEL-2 melanoma, in the assay on HOP-62 NSCLC, in the assay on NCI-H460 lung and in the assay on OVCAR-4 ovarian was above 100 µM each time. In addition, the TGI with MDA-MB-231 breast, in the assay with OVCAR-3 ovarian, with PC-3 prostate and in the assay with CCRF-CEM leukemia was above 100 µM each time.
For the molecule `CN(C)N1C(=O)c2ccccc2NC1c1ccccc1` (stereo not given), the TGI in the assay with MALME-3M melanoma, in the assay with SF-268 CNS, in the assay on SK-MEL-2 melanoma, in the assay with HOP-62 NSCLC, in the assay with NCI-H460 lung and in the assay on OVCAR-4 ovarian was above 100 µM throughout. In addition, the TGI with MDA-MB-231 breast, in the assay with OVCAR-3 ovarian, in the assay with PC-3 prostate and in the assay with CCRF-CEM leukemia was above 100 µM in each case.
In the case of `CC(C)c1ccc(C(=O)Nc2sc3c(c2C#N)CCC(=O)C3)cc1`, the GI50 is 1.17 µM in the assay with MALME-3M melanoma; 0.432 µM with SF-268 CNS; 1.6 µM with SK-MEL-2 melanoma; 3.02 µM in the assay on HOP-62 NSCLC; 1.14 µM with NCI-H460 lung; 0.294 µM in the assay with OVCAR-4 ovarian. For the same molecule, the GI50 is 0.594 µM in the assay on MDA-MB-231 breast, 0.396 µM with OVCAR-3 ovarian, 0.263 µM in the assay on PC-3 prostate and 0.189 µM with CCRF-CEM leukemia. Further, the TGI in the assay on MALME-3M melanoma is 3.82 µM; in the assay on SF-268 CNS, above 75 µM; in the assay with SK-MEL-2 melanoma it was 5.97 µM; in the assay on HOP-62 NSCLC, above 87.6 µM; in the assay on NCI-H460 lung it was above 35.9 µM; in the assay with OVCAR-4 ovarian, 1.36 µM. Moreover, the TGI in the assay with MDA-MB-231 breast is 2.88 µM; in the assay on OVCAR-3 ovarian, 1.61 µM; in the assay with PC-3 prostate, above 23.7 µM; in the assay on CCRF-CEM leukemia, above 100 µM.
For the molecule `CCN1C(=S)N(CC)C2C1NC(=S)N2/N=C/C=C/c1ccccc1` (stereo not given), the GI50 is 2.09 µM with MALME-3M melanoma; 5.51 µM in the assay with SF-268 CNS; 1.62 µM with SK-MEL-2 melanoma; 2.26 µM in the assay with HOP-62 NSCLC; 1.79 µM in the assay with NCI-H460 lung; 5.4 µM in the assay on OVCAR-4 ovarian. Besides, the GI50 in the assay on MDA-MB-231 breast is 2.75 µM; in the assay on OVCAR-3 ovarian, 0.52 µM; in the assay with PC-3 prostate it was 1.52 µM; with CCRF-CEM leukemia, 1.26 µM. The TGI in the assay on MALME-3M melanoma is 17.8 µM; in the assay on SF-268 CNS it was 27.2 µM; with SK-MEL-2 melanoma, 13.7 µM; with HOP-62 NSCLC, 15.7 µM; in the assay on NCI-H460 lung it was 12.7 µM; in the assay on OVCAR-4 ovarian, 19.6 µM. For the same molecule, the TGI in the assay on MDA-MB-231 breast came to 14.6 µM; with OVCAR-3 ovarian, 4.97 µM; with PC-3 prostate, 16 µM; in the assay on CCRF-CEM leukemia, 12 µM.
In the case of `CC/C=C\C[C@H](O)C/C=C1/C(=O)C=C[C@@H]1C/C=C\CCCC(=O)N(C)C`, the GI50 with MALME-3M melanoma was 3.05 µM; in the assay on SF-268 CNS, 3.04 µM; in the assay with SK-MEL-2 melanoma, 2.5 µM; with HOP-62 NSCLC, 1.99 µM; in the assay with NCI-H460 lung it was 2.37 µM; in the assay on OVCAR-4 ovarian, 2.07 µM. Further, the GI50 in the assay with MDA-MB-231 breast was 3.12 µM; in the assay with OVCAR-3 ovarian, 0.471 µM; with PC-3 prostate, 1.78 µM; in the assay on CCRF-CEM leukemia, 0.817 µM. Also, the TGI is 8.81 µM in the assay on MALME-3M melanoma; 13.9 µM with SF-268 CNS; 7.13 µM with SK-MEL-2 melanoma; 8.35 µM in the assay on HOP-62 NSCLC; 7.4 µM in the assay on NCI-H460 lung; 13.5 µM with OVCAR-4 ovarian. Also, the TGI in the assay on MDA-MB-231 breast turned out to be 8.95 µM; in the assay with OVCAR-3 ovarian, 1.79 µM; in the assay on PC-3 prostate it was 4.47 µM; with CCRF-CEM leukemia, 5.61 µM.
